From ChEMBL document CHEMBL1138442, “Structural insight into the inhibition of human kynurenine aminotransferase I/glutamine transaminase K” (J Med Chem, 2009) come the findings set out here.

Active and inactive are the calls of the source. The calls are words filed in the database; no cut-off is given here.

In assay [1] the target is T1, Kynurenine--oxoglutarate transaminase 1 (Homo sapiens) (UniProt Q16773).
T1 sequence (whole entry): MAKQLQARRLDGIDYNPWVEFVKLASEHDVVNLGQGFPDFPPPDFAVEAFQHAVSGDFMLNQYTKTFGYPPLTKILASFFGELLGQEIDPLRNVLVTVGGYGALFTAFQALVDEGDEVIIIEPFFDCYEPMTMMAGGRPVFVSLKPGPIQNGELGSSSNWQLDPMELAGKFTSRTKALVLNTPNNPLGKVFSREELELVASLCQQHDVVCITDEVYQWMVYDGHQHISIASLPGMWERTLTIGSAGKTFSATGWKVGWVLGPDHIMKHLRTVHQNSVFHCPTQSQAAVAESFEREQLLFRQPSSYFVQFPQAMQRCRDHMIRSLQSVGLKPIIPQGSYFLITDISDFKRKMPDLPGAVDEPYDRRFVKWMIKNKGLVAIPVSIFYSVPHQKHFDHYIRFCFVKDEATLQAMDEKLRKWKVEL
Put plainly: (§1) Inhibition of human recombinant KAT1 expressed in Sf9 cells.

For assay [2], the target named is T2, Kynurenine--oxoglutarate transaminase 1 (Homo sapiens, UniProt Q16773).
T2 sequence (Q16773 whole entry): T1 sequence (whole entry)
The assay is described as §1.

Assay [3] deals with T1, Kynurenine--oxoglutarate transaminase 1 (Homo sapiens). The assay is described as follows: Inhibition of human recombinant KAT1 expressed in Sf9 cells assessed as decrease in enzyme activity at 25 % ligand concentration. Details: scale not given: the % may be the effect or the level left.

Take `O=C(O)Cc1c[nH]c2ccccc12`: the result in assay [1] was Active.

As usually defined, the IC50 is the midpoint of a concentration-inhibition curve. `O=C(O)C(O)Cc1c[nH]c2ccccc12` (racemic): in assay [2], the IC50 turned out to be 220 µM.

On to `O=C(O)/C=C/c1c[nH]c2ccccc12`, for which the outcome in assay [1] was Active.

Regarding `OCC(O)CO`, in assay [3], the Activity turned out to be 10%.

Regarding `O=C(O)CCc1c[nH]c2ccccc12` [INDOLYLPROPIONIC ACID], the concentration for half-maximal inhibition (IC50) in assay [2] amounted to 140 µM.

`N[C@@H](Cc1c[nH]c2ccccc12)C(=O)O`: the outcome in assay [1] was Active.

Consider `O=C(O)C(=O)Cc1c[nH]c2ccccc12`, for which the result in assay [1] was Active.
